ChEMBL document CHEMBL1147137, “Structure-activity relationship of uridine 5'-diphosphoglucose analogues as agonists of the human P2Y14 receptor” (J Med Chem, 2007)
pEC50: −log10 of the molar value.

The compounds below were run against T1, P2Y purinoceptor 14 (Homo sapiens, UniProt Q15391) (assay: Agonist activity at human P2Y14 expressed in COS7 cells assessed as stimulation of PLC-mediated [3H]inositol hydrolysis). Conditions: not given.
T1 sequence (Q15391 whole entry): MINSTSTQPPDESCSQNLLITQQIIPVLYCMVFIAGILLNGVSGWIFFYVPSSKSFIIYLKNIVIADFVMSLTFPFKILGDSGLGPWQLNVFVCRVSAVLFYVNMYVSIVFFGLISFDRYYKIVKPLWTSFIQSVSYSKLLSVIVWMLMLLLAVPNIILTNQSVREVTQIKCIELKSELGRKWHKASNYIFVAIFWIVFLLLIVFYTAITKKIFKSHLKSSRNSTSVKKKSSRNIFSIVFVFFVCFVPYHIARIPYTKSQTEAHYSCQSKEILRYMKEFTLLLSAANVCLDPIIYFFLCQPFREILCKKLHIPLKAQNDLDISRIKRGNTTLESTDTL
Format: functional, cell-based, COS-7

| Compound | EC50 | pEC50 |
| --- | --- | --- |
| O=c1ccn([C@@H]2O[C@H](COP(=O)(O)OP(=O)(O)OC[C@@]3(O)O[C@H](CO)[C@@H](O)[C@@H]3O)[C@@H](O)[C@H]2O)c(=O)[nH]1 | 880 nM (agonist) | – |
| O=C(O)[C@H]1O[C@H](OP(=O)(O)OP(=O)(O)OC[C@H]2O[C@@H](n3ccc(=O)[nH]c3=O)[C@H](O)[C@@H]2O)[C@H](O)[C@@H](O)[C@@H]1O | 370 nM (agonist) | – |
| O=c1ccn([C@@H]2O[C@H](COP(=O)(O)OP(=O)(O)O[C@H]3O[C@H](CO)[C@@H](O)[C@H](O)[C@H]3O)[C@@H](O)[C@H]2O)c(=S)[nH]1 | 49 nM (agonist) | – |
| O=c1[nH]c(=S)ccn1[C@@H]1O[C@H](COP(=O)(O)OP(=O)(O)O[C@H]2O[C@H](CO)[C@@H](O)[C@H](O)[C@H]2O)[C@@H](O)[C@H]1O | 350 nM (agonist) | – |
| O=C(O)[C@H]1O[C@H](OP(=O)(O)OP(=O)(O)OC[C@H]2O[C@@H](n3ccc(=O)[nH]c3=S)[C@H](O)[C@@H]2O)[C@H](O)[C@@H](O)[C@@H]1O | 420 nM (agonist) | – |
| O=c1ccn([C@@H]2O[C@H](COP(=O)(O)OP(=O)(O)O[C@H]3[C@H](O)[C@@H](O)[C@H](O)[C@@H](O)[C@@H]3O)[C@@H](O)[C@H]2O)c(=O)[nH]1 | 1880 nM (agonist) | – |
| CSc1ccn([C@@H]2O[C@H](COP(=O)(O)OP(=O)(O)O[C@H]3O[C@H](CO)[C@@H](O)[C@H](O)[C@H]3O)[C@@H](O)[C@H]2O)c(=O)n1 | – | < 5.00 |

Same assay, conditions: cos-7

| Compound | EC50 |
| --- | --- |
| CC(=O)N[C@@H]1[C@H](OP(=O)(O)OP(=O)(O)OC[C@H]2O[C@@H](n3ccc(=O)[nH]c3=O)[C@H](O)[C@@H]2O)O[C@@H](CO)[C@H](O)[C@H]1O (stereo in doubt) | 810 nM (agonist) |
